Laboratory results reported in PMC9227781, “Inhibitors of O-Acetylserine Sulfhydrylase with a Cyclopropane-Carboxylic Acid Scaffold Are Effective Colistin Adjuvants in Gram Negative Bacteria” (Pharmaceuticals, 2022).
Like-named read-outs stand apart in the source and are kept apart here.

Legend:
[1] = target: T1, StOASS-A (Salmonella typhimurium, UniProt P0A1E3); test: Fluorescence binding assay on purified recombinant StOASS-A; parameters: species or system S. Typhimurium
T1 construct: His-tag (with TEV site) (cleaved yes); made in house; host or cells: E. coli Rosetta (DE3)
Method: (§1) The affinity of the compounds for StOASS-A and StOASS-B was determined on the purified recombinant proteins by an in vitro fluorescence binding assay. Measurements were carried out at 20 °C in a 3 mm pathlength quartz microcuvette in 100 mM HEPES, 5% DMSO (Applichem, Darmstadt, Germany), pH 7.0, using a Fluoromax-4 (Horiba Jobin-Yvon, Kyoto, Japan) spectrofluorometer. Emission spectra of solutions containing 0.2–1.0 μM StOASS, upon excitation of the pyridoxal 5′-phosphate cofactor at 412 nm, in the presence of increasing concentrations of compounds were collected; fluorescence intensities at 500 nm were plotted to compound concentration and data were fitted to a binding isotherm: I=I0+ΔI·compound/KD+compound where I is the fluorescence emission intensity at 500 nm in the presence of a given concentration of compound, I0 is the initial fluorescence emission in the absence of ligands, ΔI is the amplitude of the fluorescence emission change and KD is the dissociation constant. When the KD was lower than the protein concentration, data were fitted to the quadratic equation: I=I0+ΔI·OASS+compound+KD−OASS+compound+KD^2−4·OASS·compound/2
(§2) Data were collected in duplicate.
(§3) Esters were tested up to a concentration of 100 μM and no binding was observed.

[2] = target: T2, StOASS-B (Salmonella typhimurium, UniProt P29848); test: Fluorescence binding assay on purified recombinant StOASS-B
T2 construct: His-tag (with TEV site) (cleaved yes); made in house; host or cells: E. coli Rosetta (DE3)
T2 sequence (P29848 1-303): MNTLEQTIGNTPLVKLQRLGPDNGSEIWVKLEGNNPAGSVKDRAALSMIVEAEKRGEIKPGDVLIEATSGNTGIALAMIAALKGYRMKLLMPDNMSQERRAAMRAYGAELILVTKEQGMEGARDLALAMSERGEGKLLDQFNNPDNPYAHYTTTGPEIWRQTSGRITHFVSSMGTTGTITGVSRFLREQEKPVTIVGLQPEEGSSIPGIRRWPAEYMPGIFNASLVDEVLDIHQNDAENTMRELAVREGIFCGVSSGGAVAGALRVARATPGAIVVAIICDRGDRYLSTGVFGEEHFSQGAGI
Method: as §1, §2, §3

[3] = test system: E. coli ATCC 25922; test: MIC by broth microdilution, E. coli; type: cell-based, Escherichia coli; conditions: Escherichia coli, ATCC25922; compound alone, MHB, 24 h at 37 °C; read-out: MIC (μg/mL) E.coli ATCC 25922
Method: (§4) MIC values were evaluated following CLSI guidelines with some modifications, as referred to in previous work. Twofold dilutions 25.6–0.05 mg/mL of the tested compounds were performed in DMSO in separate 96-well microtiter U-plates (Greiner, Milan, Italy). In a different 96-well microtiter U-plate, for each well of the replicates, 49 µL of broth medium were added. Then, in each well of the plate, one microliter of each compound at variable dilution in DMSO was added. For each test, three independent experiments with three replicates each were performed. Tested reference bacterial strains (E. coli ATCC25922; S. Typhimurium ATCC14028; K. pneumoniae ATCC13883) were brought to the logarithmic phase of growth in MHB medium by incubation at 37 °C for 24 h. After incubation, bacterial suspensions were centrifuged (2000 rpm, 4 °C for 20 min), and then the pellets were resuspended in 100 mM phosphate buffer, pH 7.0, to reach a final bacterial concentration of 10^8 CFU/mL, adjusted by spectrophotometry (OD620nm ranged between 0.08–0.13). The obtained suspensions were further diluted 1:100 in broth medium to reach a bacterial concentration of 10^6 CFU/mL. Fifty µL of the bacterial suspension containing 10^6 CFU/mL were inoculated into each well within 30 min, to obtain a final concentration of 5 × 10^5 CFU/mL in a total volume of 100 µL. The final dilution range tested was 256–0.5 µg/mL. Growth and sterility controls were performed for each strain and for each tested compound. Plates were then incubated for 24 h at 37 °C in a static aerobic atmosphere. After incubation, plates were read by unaided eye with a microtiter reading mirror and then the OD of each well of the plates was measured spectrophotometrically at 620 nm. MIC values were calculated as the arithmetic mean ± standard deviation (SD) of the unaided eye reading and the inhibition of growth for each tested dilution was calculated from the OD values (mean ± SD). A quality control microorganism (E. coli ATCC 25922) was tested periodically to validate the accuracy of the procedure.

[4] = test system: S. Typhimurium ATCC14028; test: MIC by broth microdilution, S. Typhimurium; type: cell-based, Salmonella enterica serovar Typhimurium; conditions: Salmonella enterica; compound alone, MHB, 24 h at 37 °C; read-out: MIC (μg/mL) S. Typhimurium ATCC14028
Method: as §4

[5] = test system: K. pneumoniae ATCC13883; test: MIC by broth microdilution, K. pneumoniae; type: cell-based, Klebsiella pneumoniae; conditions: Klebsiella pneumoniae, ATCC13883; compound alone, MHB, 24 h at 37 °C; read-out: MIC (μg/mL) K. pneumoniae ATCC13883
Method: as §4

[6] = test system: MDBK cells; test: Cytotoxicity assay (MTT) on MDBK cells; type: cell-based, bovine; conditions: 32, 16, 8 µg/mL; MTT test
Method: The cytotoxicity assay was performed using the 3-(4,5-dimethylthiazol-2-yl)-2,5-diphenyltetrazolium bromide (MTT) test, following the procedure used by Donofrio et al.. MDBK cells were cultured on microtiter tissue culture plates in DMEM medium for 24 h at 37 °C in the presence of 5% CO2. After incubation, when the cell monolayer was at confluence, an aliquot of 1 µL of UPAR415 in DMSO at different concentrations was added in each well, containing a volume of 100 µL of DMEM medium and MDBK cells, and then the plates were reincubated at the same conditions. After incubation, 10 µL of MTT at 200 mg/mL (3-(4,5-dimethylthiazol-2-yl)-2,5-diphenyltetrazolium bromide) was added to each well and incubated at 37 °C for 6 h. At the end of the incubation, 100 µL of the solubilization solution (10% SDS in 0.01 M HCl) was added to each well and then incubated overnight. The MTT compound, a yellow tetrazolium salt, is reduced by mitochondrial enzymes (succinate dehydrogenase) of metabolically active eukaryotic cells to insoluble formazan crystals. In the presence of metabolically active cells, after the addition of a detergent solution (10% SDS in […]) that allows the formazan to be released from the cells, a violet color is seen in the medium. Instead, in the presence of non-viable cells, MTT is not reduced to formazan and therefore the solution will remain yellow.
After incubation, plates were read with a spectrophotometer at 620 nm. Positive controls (PC)—without any compounds—and PCs with 1% DMSO were performed for each plate and three replicates for two independent experiments were performed for each assay.

[7] = 20 °C, 100 mM HEPES, 5% DMSO, pH 7.0, racemic mixture, esters tested up to 100 μM
[8] = 20 °C, 100 mM HEPES, 5% DMSO, pH 7.0, racemic mixture, esters tested up to 100 μM, read-out: KD (μM) OASS-A

T1 sequence (P0A1E3 whole entry): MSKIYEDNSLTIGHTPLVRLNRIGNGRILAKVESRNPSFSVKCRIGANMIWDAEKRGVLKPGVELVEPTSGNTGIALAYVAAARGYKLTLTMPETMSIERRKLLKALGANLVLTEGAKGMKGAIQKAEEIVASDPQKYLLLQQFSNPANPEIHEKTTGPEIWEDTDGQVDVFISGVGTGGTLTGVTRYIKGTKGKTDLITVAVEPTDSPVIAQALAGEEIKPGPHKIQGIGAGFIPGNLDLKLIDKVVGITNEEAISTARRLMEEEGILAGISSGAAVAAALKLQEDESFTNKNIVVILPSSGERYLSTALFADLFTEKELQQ

SMILES | KD (μM) OASS-A [1, 7] | KD (μM) OASS-B [2, 7] | MIC [3] [µg/mL] | MIC [4] [µg/mL] | MIC [5] [µg/mL] | Toxicity on viability of MDBK cells [6] | Kd [1, 8] [µM] | Kd [2] [µM] | Kd [1] [µM] | Kd ([2]; 20 °C, 100 mM HEPES, 5% DMSO, pH 7.0, racemic mixture, esters tested up to 100 μM, read-out: KD (μM) OASS-B) [µM]
CCOC(=O)[C@]1(Cc2ccc(C)cc2)C[C@H]1c1cccc(-c2cn[nH]c2)c1 (relative stereo) [Compound 8c, trans-ethyl 2-(3-(1H-pyrazol-4-yl)phenyl)-1-(4-methylbenzyl)cyclopropanecarboxylate] | No binding | No binding | > 512 | > 512 | > 512 | high toxicity profiles |  |  |  | 
Cc1ccc(C[C@@]2(C(=O)O)C[C@H]2c2cccc(N3CCN(C)CC3)c2)cc1 (relative stereo) [Compound 21j, trans-1-(4-methylbenzyl)-2-(3-(4-methylpiperazin-1-yl)phenyl)cyclopropanecarboxylic acid] | good activity | detrimental effect | > 512 | > 512 | > 512 |  | 0.25 ± 0.06 | 23.6 ± 4.5 |  | 
CCOC(=O)C1(Cc2ccc(C)cc2)CC1c1cccc(-c2cnc(N)nc2)c1 (centres unmarked) [Compound 8a, ethyl 2-(3-(2-aminopyrimidin-5-yl)phenyl)-1-(4-methylbenzyl)cyclopropanecarboxylate] |  |  | > 512 | > 512 | > 512 |  |  |  |  | 
Cc1ccc(C[C@@]2(C(=O)O)C[C@H]2c2cccc(N3CCOCC3)c2)cc1 (relative stereo) [Compound 13g, trans-1-(4-methylbenzyl)-2-(3-morpholinophenyl)cyclopropanecarboxylic acid] |  |  | > 512 | > 512 | > 512 |  | 0.1 ± 0.01 | 3.86 ± 0.29 |  | 
CCOC(=O)[C@]1(Cc2ccc(C)cc2)C[C@H]1c1cccc(-c2cc(O)cc(F)c2)c1 (relative stereo) [Compound 8e, trans-ethyl 2-(3′-fluoro-5′-hydroxy-[1,1′-biphenyl]-3-yl)-1-(4-methylbenzyl) cyclopropanecarboxylate] | No binding | No binding | > 512 | > 512 | > 512 | high toxicity profiles |  |  |  | 
Cc1ccc(C[C@@]2(C(=O)O)C[C@H]2c2cccc(-c3c[nH]nc3C)c2)cc1 (relative stereo) [Compound 9b, trans-2-(3-(3-methyl-1H-pyrazol-4-yl)phenyl)-1-(4-methylbenzyl)cyclopropanecarboxylic acid] |  |  | > 512 | > 512 | > 512 |  | 1.86 ± 0.76 | 2.63 ± 0.04 |  | 
Cc1ccc(C[C@@]2(C(=O)O)C[C@H]2c2cccc(-c3ccccc3)c2)cc1 (relative stereo) [Compound 9d, trans-2-([1,1′-biphenyl]-3-yl)-1-(4-methylbenzyl)cyclopropanecarboxylic acid] |  |  | > 512 | > 512 | > 512 |  | 2.51 ± 0.61 | 6.8 ± 1.1 |  | 
Cc1ccc(C[C@@]2(C(=O)O)C[C@H]2c2cccc(-c3cnc(N)nc3)c2)cc1 (relative stereo) [Compound 9a, trans-2-(3-(2-aminopyrimidin-5-yl)phenyl)-1-(4-methylbenzyl)cyclopropanecarboxylic acid] |  |  | > 512 | > 512 | > 512 |  | 0.57 ± 0.16 | 1.29 ± 0.09 |  | 
Cc1ccc(C[C@@]2(C(=O)O)C[C@H]2c2cccc(-c3cccc(F)c3)c2)cc1 (relative stereo) [Compound 9f, trans-2-(3′-fluoro-[1,1′-biphenyl]-3-yl)-1-(4-methylbenzyl)cyclopropanecarboxylic acid] | low nanomolar range |  | > 512 | > 512 | > 512 |  | 0.051 ± 0.004 | 1.45 ± 0.31 |  | 
Cc1ccc(C[C@@]2(C(=O)O)C[C@H]2c2cccc(-c3cc(O)cc(F)c3)c2)cc1 (relative stereo) [Compound 9e, trans-2-(3′-fluoro-5′-hydroxy-[1,1′-biphenyl]-3-yl)-1-(4-methylbenzyl)cyclopropanecarboxylic acid] | low nanomolar range |  | > 512 | > 512 | > 512 |  | 0.035 ± 0.003 | 0.61 ± 0.08 |  | 
CCOC(=O)[C@]1(Cc2ccc(C)cc2)C[C@H]1c1cccc(-c2ccccc2)c1 (relative stereo) [Compound 8d, trans-ethyl 2-([1,1′-biphenyl]-3-yl)-1-(4-methylbenzyl)cyclopropanecarboxylate] | No binding | No binding | > 512 | > 512 | > 512 |  |  |  |  | 
Cc1ccc(C[C@@]2(C(=O)O)C[C@H]2c2cccc(N3CCNCC3)c2)cc1 (relative stereo) [Compound 21i, trans-1-(4-methylbenzyl)-2-(3-(piperazin-1-yl)phenyl)cyclopropanecarboxylic acid] | good activity | detrimental effect | > 512 | > 512 | > 512 |  |  |  | 0.45 ± 0.09 | 83.8 ± 16.1
Cc1ccc(C[C@@]2(C(=O)O)C[C@H]2c2cccc(-c3cn[nH]c3)c2)cc1 (relative stereo) [Compound 9c, trans-2-(3-(1H-pyrazol-4-yl)phenyl)-1-(4-methylbenzyl)cyclopropanecarboxylic acid] |  |  | > 512 | > 512 | > 512 |  | 1.01 ± 0.38 | 3.05 ± 0.18 |  | 
